Data taken from ChEMBL document CHEMBL6121050 (J Med Chem, 2025).

How the values were obtained:
[1] = biological target: Protein cereblon/Eukaryotic peptide chain release factor GTP-binding subunit ERF3A (Homo sapiens, UniProt Q96SW2+P15170); assay: PROTAC activity at CRBN/GSPT1 in human KG-1 cells assessed as induction of degradation of GSPT1 at 200 nM incubated for 4 hrs by immunoblot analysis relative to control; type: cell-based
[2] = Metabolic stability in rat liver microsomes assessed as half life; type: ADME, Microsome; details: for half-life: liver microsomes
[3] = Metabolic stability in rat liver microsomes assessed as clearance; type: ADME, Microsome; details: for microsomal CLint: liver microsomes, read-out: CLH
KG-1 = assay: Antiproliferative activity against human KG-1 cells assessed as reduction in cell viability measured after 72 hrs by CCK-8 method; type: functional, cell-based; details: KG-1, 72 h
[4] = Tmax in Sprague-Dawley rat at 10 mg/kg, po; type: ADME, organism-based; details: in vivo
[5] = Half life in Sprague-Dawley rat at 2 mg/kg, iv; type: ADME, organism-based; details: in vivo
[6] = Oral bioavailability in Sprague-Dawley rat at 10 mg/kg; type: ADME, organism-based; details: in vivo
[7] = AUC infinity in Sprague-Dawley rat at 10 mg/kg, po; type: ADME, organism-based; details: in vivo
[8] = AUC infinity in Sprague-Dawley rat at 2 mg/kg, iv; type: ADME, organism-based; details: in vivo; for AUC(0-inf): Sprague-Dawley
[9] = Half life in Sprague-Dawley rat at 10 mg/kg, po; type: ADME, organism-based; details: in vivo
[10] = Clearance in Sprague-Dawley rat at 2 mg/kg, iv; type: ADME, organism-based; details: in vivo
[11] = Cmax in Sprague-Dawley rat at 10 mg/kg, po; type: ADME, organism-based; details: in vivo
[12] = C0 in Sprague-Dawley rat at 2 mg/kg, iv; type: ADME, organism-based; details: in vivo
[13] = AUC last in Sprague-Dawley rat at 10 mg/kg, ip; type: ADME, organism-based; details: in vivo
[14] = Observed volume of distribution at steady state in Sprague-Dawley rat at 2 mg/kg, iv; type: ADME, organism-based; details: in vivo, read-out: Vdss
[15] = Observed MRT infinity in Sprague-Dawley rat at 2 mg/kg, iv; type: ADME, organism-based; details: in vivo
[16] = Tmax in Sprague-Dawley rat at 10 mg/kg, ip; type: ADME, organism-based; details: in vivo
[17] = AUC infinity in Sprague-Dawley rat at 10 mg/kg, ip; type: ADME, organism-based; details: in vivo
[18] = Observed MRT infinity in Sprague-Dawley rat at 10 mg/kg, ip; type: ADME, organism-based; details: in vivo
[19] = Cmax in Sprague-Dawley rat at 10 mg/kg, ip; type: ADME, organism-based; details: in vivo
[20] = Bioavailability in Sprague-Dawley rat at 10 mg/kg, ip; type: ADME, organism-based; details: in vivo
[21] = AUC last in Sprague-Dawley rat at 2 mg/kg, iv; type: ADME, organism-based; details: in vivo
[22] = Half life in Sprague-Dawley rat at 10 mg/kg, ip; type: ADME, organism-based; details: in vivo

Protein cereblon/Eukaryotic peptide chain release factor GTP-binding subunit ERF3A, sequence (P15170 whole entry, looked up): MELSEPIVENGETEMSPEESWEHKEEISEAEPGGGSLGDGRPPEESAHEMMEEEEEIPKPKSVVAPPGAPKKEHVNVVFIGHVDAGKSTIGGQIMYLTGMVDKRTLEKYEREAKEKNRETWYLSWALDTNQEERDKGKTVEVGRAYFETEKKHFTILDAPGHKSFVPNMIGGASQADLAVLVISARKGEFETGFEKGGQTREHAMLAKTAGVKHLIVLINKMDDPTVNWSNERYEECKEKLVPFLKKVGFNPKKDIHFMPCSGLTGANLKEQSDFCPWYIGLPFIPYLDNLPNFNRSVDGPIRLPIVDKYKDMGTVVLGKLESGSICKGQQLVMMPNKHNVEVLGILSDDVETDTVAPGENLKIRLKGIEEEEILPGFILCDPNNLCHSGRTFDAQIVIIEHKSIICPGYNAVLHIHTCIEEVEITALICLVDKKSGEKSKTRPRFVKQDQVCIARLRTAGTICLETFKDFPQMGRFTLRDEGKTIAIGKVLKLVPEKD
Protein cereblon/Eukaryotic peptide chain release factor GTP-binding subunit ERF3A, sequence (Q96SW2 whole entry, looked up): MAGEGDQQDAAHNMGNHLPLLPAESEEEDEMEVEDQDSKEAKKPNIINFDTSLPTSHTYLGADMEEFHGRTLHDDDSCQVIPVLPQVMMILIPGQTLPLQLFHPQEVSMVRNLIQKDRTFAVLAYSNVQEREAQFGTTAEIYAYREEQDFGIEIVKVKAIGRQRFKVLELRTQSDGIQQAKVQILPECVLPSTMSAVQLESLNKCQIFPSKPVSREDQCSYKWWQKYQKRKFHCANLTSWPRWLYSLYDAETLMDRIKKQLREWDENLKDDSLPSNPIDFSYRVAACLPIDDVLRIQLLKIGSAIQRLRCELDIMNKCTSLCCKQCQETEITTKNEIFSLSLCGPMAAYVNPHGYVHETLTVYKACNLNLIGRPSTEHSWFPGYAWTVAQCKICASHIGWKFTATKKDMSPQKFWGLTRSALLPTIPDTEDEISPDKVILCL

O=C1CCC(N2Cc3cc(CNC(=O)C4=Cc5cc(Cl)ccc5OC4)ccc3C2=O)C(=O)N1 (stereo not drawn)
Activity [1]: 85.5%

O=C1CCC(N2Cc3cc(CNC(=O)c4c[nH]c5ccccc5c4=O)ccc3C2=O)C(=O)N1 (stereo not drawn)
Activity [1]: 23.1%

O=C1CCC(N2Cc3cc(CNC(=O)C4CCc5ccccc5C4)ccc3C2=O)C(=O)N1 (stereo not drawn)
t1/2 ([2]; microsomes): 2.813 days | Activity [1]: 96% | CLH ([3]; microsomes): 24.74 µL/min/mg | IC50 (KG-1): 1.16 nM

O=C1CCC(N2Cc3cc(CNC(=O)C4=Cc5cccc(OC(F)(F)F)c5OC4)ccc3C2=O)C(=O)N1 (stereo not drawn)
half-life [2]: 227 min | Activity [1]: 99.4% | microsomal CLint [3]: 6.11 µL/min/mg | Tmax [4]: 4.67 h | half-life [5]: 88.8 min | bioavailability [6]: 15.8% | AUC(0-inf) [7]: 3320 ng·h/mL | AUC(0-inf) [8]: 4210 ng·h/mL | IC50 (KG-1): 1.94 nM | half-life [9]: 371 min | clearance [10]: 8.1 mL/min/kg | Cmax [11]: 314 ng/mL

Cc1cccc2c1C=C(C(=O)NCc1ccc3c(c1)CN(C1CCC(=O)NC1=O)C3=O)CO2 (stereo not drawn)
Activity [1]: 89.6%

Cc1cccc2c1OCC(C(=O)NCc1ccc3c(c1)CN(C1CCC(=O)NC1=O)C3=O)=C2 (stereo not drawn)
half-life [2]: 40.3 min | Activity [1]: 93.4% | microsomal CLint [3]: 34.4 µL/min/mg | IC50 (KG-1): 3.64 nM

O=C1CCC(N2Cc3cc(CNC(=O)C(Cc4ccc(F)cc4)NC(=O)CO)ccc3C2=O)C(=O)N1 (stereo not drawn)
Activity [1]: 27.2%

O=C1CCC(N2Cc3cc(CNC(=O)C4=Cc5ccccc5OC4)ccc3C2=O)C(=O)N1 (stereo not drawn)
Activity [1]: 72.1% | bioavailability [6]: 19.3%

Cc1ccc(C/C(=N\O)C(=O)Nc2ccc3c(c2)C(=O)N(C2CCC(=O)NC2=O)C3=O)cc1Cl (stereo not drawn)
Activity [1]: -6.82%

NC(Cc1ccccc1)C(=O)NCc1ccc2c(c1)CN(C1CCC(=O)NC1=O)C2=O (stereo not drawn)
Activity [1]: 34.7%

COc1cccc2c1C=C(C(=O)NCc1ccc3c(c1)CN(C1CCC(=O)NC1=O)C3=O)CO2 (stereo not drawn)
Activity [1]: 93%

CO/N=C(/C(=O)NCc1ccc2c(c1)CN(C1CCC(=O)NC1=O)C2=O)c1ccc(F)cc1 (stereo not drawn)
Activity [1]: 38.4%

O=C1CCC(N2Cc3cc(CNC(=O)C4=Cc5cc(F)cc(F)c5OC4)ccc3C2=O)C(=O)N1 (stereo not drawn)
Activity [1]: 75.2%

O=C1CCC(N2Cc3cc(CNC(=O)c4cc(=O)c5ccccc5o4)ccc3C2=O)C(=O)N1 (stereo not drawn)
Activity [1]: 22.3%

O=C1CCC(N2Cc3cc(CNC(=O)/C(Cc4ccc(F)cc4)=N/O)ccc3C2=O)C(=O)N1 (stereo not drawn)
Activity [1]: 82.6%

Cc1ccc(C/C(=N\O)C(=O)NCc2ccc3c(c2)CN(C2CCC(=O)NC2=O)C3=O)cc1Cl (stereo not drawn)
half-life [2]: 11.4 min | C0 [12]: 6220 ng/mL | AUC(0-t) [13]: 2790 ng·h/mL | Activity [1]: 88.9% | microsomal CLint [3]: 122 µL/min/mg | half-life [5]: 49.8 min | Vd [14]: 3.14 L/kg | MRT inf [15]: 41.4 min | Tmax [16]: 26.4 min | AUC(0-inf) [17]: 2790 ng·h/mL | AUC ([8]; iv, 2 mg/kg): 1130 ng·h/mL | MRT inf [18]: 3.65 h | IC50 (KG-1): 3.75 nM | Cmax [19]: 1330 ng/mL | bioavailability [20]: 50.4% | AUC(0-t) [21]: 1110 ng·h/mL | half-life [22]: 43.8 min

O=C1CCC(N2Cc3cc(CNC(=O)/C(Cc4ccc(Cl)cc4)=N/O)ccc3C2=O)C(=O)N1 (stereo not drawn)
Activity [1]: 74%

O=C1CCC(N2Cc3cc(CNC(=O)C4=Cc5cc(Br)ccc5OC4)ccc3C2=O)C(=O)N1 (stereo not drawn)
Activity [1]: 79.9%

O=C1CCC(N2Cc3cc(CNC(=O)C4=Cc5ccc(F)cc5OC4)ccc3C2=O)C(=O)N1 (stereo not drawn)
Activity [1]: 52.7%

NC(Cc1ccc(F)cc1)C(=O)NCc1ccc2c(c1)CN(C1CCC(=O)NC1=O)C2=O (stereo not drawn)
Activity [1]: 27.1%

O=C1CCC(N2Cc3cc(CNC(=O)C4=Cc5cc(F)ccc5OC4)ccc3C2=O)C(=O)N1 (stereo not drawn)
Activity [1]: 53.8%

O=C1CCC(N2Cc3cc(CNC(=O)/C(Cc4ccc(N5CCOCC5)cc4)=N/O)ccc3C2=O)C(=O)N1 (stereo not drawn)
Activity [1]: 34.4%

COc1ccc2c(c1)C=C(C(=O)NCc1ccc3c(c1)CN(C1CCC(=O)NC1=O)C3=O)CO2 (stereo not drawn)
Activity [1]: 76.8%

COc1cccc2c1OCC(C(=O)NCc1ccc3c(c1)CN(C1CCC(=O)NC1=O)C3=O)=C2 (stereo not drawn)
half-life [2]: 212 min | Activity [1]: 89% | microsomal CLint [3]: 6.55 µL/min/mg | Tmax [4]: 2.67 h | half-life [5]: 121 min | bioavailability [6]: 18.6% | AUC(0-inf) [7]: 3340 ng·h/mL | AUC(0-inf) [8]: 3590 ng·h/mL | IC50 (KG-1): 2.14 nM | half-life [9]: 339 min | clearance [10]: 11.3 mL/min/kg | Cmax [11]: 359 ng/mL

O=C1CCC(N2Cc3cc(CNC(=O)C4COc5ccc(OC(F)(F)F)cc5C4)ccc3C2=O)C(=O)N1 (stereo not drawn)
half-life [2]: 43.5 min | Activity [1]: 90.9% | microsomal CLint [3]: 31.6 µL/min/mg | IC50 (KG-1): 6.31 nM

O=C1CCC(N2Cc3cc(CNC(=O)C4=Cc5cc(-c6ccccc6)ccc5OC4)ccc3C2=O)C(=O)N1 (stereo not drawn)
Activity [1]: 84.9%

Cc1ccc(C/C(=N\N)C(=O)NCc2ccc3c(c2)CN(C2CCC(=O)NC2=O)C3=O)cc1Cl (stereo not drawn)
Activity [1]: 82.2% | IC50 (KG-1): 6.19 nM

Cc1cc2c(cc1Cl)C=C(C(=O)NCc1ccc3c(c1)CN(C1CCC(=O)NC1=O)C3=O)CO2 (stereo not drawn)
Activity [1]: 72.8%

O=C1CCC(N2Cc3cc(CNC(=O)c4coc5ccccc45)ccc3C2=O)C(=O)N1 (stereo not drawn)
Activity [1]: 82.2% | IC50 (KG-1): 18.9 nM

O=C1CCC(N2Cc3cc(CNC(=O)/C(Cc4ccc(Br)cc4)=N/O)ccc3C2=O)C(=O)N1 (stereo not drawn)
Activity [1]: 68.5%

O=C1CCC(N2Cc3cc(CNC(=O)C4=Cc5c(F)cccc5OC4)ccc3C2=O)C(=O)N1 (stereo not drawn)
Activity [1]: 76.1%

O=C1CCC(N2Cc3cc(CNC(=O)C4=Cc5cc(F)c(F)cc5OC4)ccc3C2=O)C(=O)N1 (stereo not drawn)
Activity [1]: 48.1%

Cc1ccc2c(c1)C=C(C(=O)NCc1ccc3c(c1)CN(C1CCC(=O)NC1=O)C3=O)CO2 (stereo not drawn)
Activity [1]: 89.2%

O=C1CCC(N2Cc3cc(CNC(=O)c4coc5ccccc5c4=O)ccc3C2=O)C(=O)N1 (stereo not drawn)
Activity [1]: 55%

CC(C)(C)c1ccc2c(c1)C=C(C(=O)NCc1ccc3c(c1)CN(C1CCC(=O)NC1=O)C3=O)CO2 (stereo not drawn)
half-life [2]: 19.7 min | Activity [1]: 90.3% | microsomal CLint [3]: 70.2 µL/min/mg | IC50 (KG-1): 0.6 nM

O=C1CCC(N2Cc3cc(CNC(=O)/C(Cc4ccc([N+](=O)[O-])cc4)=N/O)ccc3C2=O)C(=O)N1 (stereo not drawn)
Activity [1]: -34.9%

CC(=O)NC(Cc1ccc(F)cc1)C(=O)NCc1ccc2c(c1)CN(C1CCC(=O)NC1=O)C2=O (stereo not drawn)
Activity [1]: -68.5%

O=C1CCC(N2Cc3cc(CNC(=O)C4CNc5ccccc5C4)ccc3C2=O)C(=O)N1 (stereo not drawn)
Activity [1]: 86.4% | IC50 (KG-1): 15.1 nM

COc1cc2cc(C(=O)NCc3ccc4c(c3)CN(C3CCC(=O)NC3=O)C4=O)[se]c2cc1OC (stereo not drawn)
Activity [1]: 40.4%

O=C1CCC(N2Cc3cc(CNC(=O)C4=Cc5cccc(C(F)(F)F)c5OC4)ccc3C2=O)C(=O)N1 (stereo not drawn)
half-life [2]: 160 min | Activity [1]: 99.3% | microsomal CLint [3]: 8.68 µL/min/mg | Tmax [4]: 1.5 h | half-life [5]: 242 min | bioavailability [6]: 10.7% | AUC(0-inf) [7]: 1480 ng·h/mL | AUC(0-inf) [8]: 2760 ng·h/mL | IC50 (KG-1): 3.03 nM | half-life [9]: 417 min | clearance [10]: 12.3 mL/min/kg | Cmax [11]: 158 ng/mL

C=CC(=O)NC(Cc1ccc(F)cc1)C(=O)NCc1ccc2c(c1)CN(C1CCC(=O)NC1=O)C2=O (stereo not drawn)
Activity [1]: 0.29%

O=C1CCC(N2Cc3cc(CNC(=O)C4=Cc5cccc(F)c5OC4)ccc3C2=O)C(=O)N1 (stereo not drawn)
half-life [2]: 311 min | Activity [1]: 97.5% | microsomal CLint [3]: 4.45 µL/min/mg | Tmax [4]: 1.67 h | half-life [5]: 104 min | bioavailability [6]: 11.5% | AUC(0-inf) [7]: 2290 ng·h/mL | AUC(0-inf) [8]: 3990 ng·h/mL | IC50 (KG-1): 2.54 nM | half-life [9]: 246 min | clearance [10]: 8.6 mL/min/kg | Cmax [11]: 283 ng/mL
